Test results from US20070014736A1, “Methods of delivering corticotroph-derived glycoprotein hormone” (priority 2005, published 2007).

What was measured:
[1] = system: lipolysis in mice; assay: Stimulation of lipolysis in vivo, serum glycerol and FFA; conditions: fasted mice, IP; CGH 300 μg/kg, CL 1 mg/kg
Method: CGH, the β3-adrenoreceptor agonist CL 316,243 (CL), and saline vehicle were examined for stimulation of lipolysis in mice following an overnight fast. […] Lipolysis was assessed as the percent change in serum glycerol or FFA over the 2 hour period. The serum glycerol and FFA for the vehicle groups decreased by 7%±9% and 24%±15%, respectively. The serum glycerol for the CGH group increased by 57%±20%; p=0.0254, and the FFA levels increased 25%±5%; p=0.0188.
C57 BL/6 male mice, age 19 weeks, were grouped to normalize weight (n=4 for each treatment; average group weight=37.8 g±0.4 g). Mice were housed individually for 18 hours prior to treatment, at which time food was withdrawn, with free access to water given. At approximately 8 a.m., the subjects were anesthetized with halothane and blood samples taken by retro-orbital eye bleed. The blood was allowed to clot, and the serum was separated by centrifugation and frozen for later analysis. Test substances were administered by IP injection in a volume of 0.1 ml, and the animals replaced in their cages for 2 hours with free access to water. At 2 hours, the mice were sacrificed and blood drawn by cardiac puncture.
For measuring free fatty acids in serum, the method previously described for measuring free fatty acids in conditioned media was followed, with the following modifications. Wako reagents A and B were reconstituted to 2× the recommended concentration. 75 μl of Wako reagent A were added to 5 μl of oleic acid standard plus 5 μl of water. 75 μl of Wako reagent A were added to 5 μl of serum plus 5 μl of methanol (to mirror the oleic acid standard conditions). The 96-well plates were incubated at 37° C. for 10 minutes. 150 μl of Wako reagent B were added to each well. The 96-well plates were incubated at 37° C. for 10 minutes. The 96-well plates were allowed to sit at room temperature for 5 minutes. The 96-well plates were centrifuged in a Beckman Coulter Allegra 6R centrifuge at 3250×g for 5 minutes to remove air bubbles. The absorbance at 530 nm was measured on the Wallac Victor2 Multilabel counter.
For measuring glycerol in serum, the method previously described for measuring glycerol in conditioned media was followed, with the modifications described below.
Sigma reagent A was reconstituted to 0.5× the recommended concentration. 200 μl of Sigma reagent A were added to 10 μl of glycerol standard. 200 μl of Sigma reagent A were added to 5 μl of serum plus 5 μI of water. The 96-well plates were incubated for 15 minutes at room temperature. The 96-well plates were centrifuged in a Beckman Coulter Allegra 6R centrifuge at 3250×g for 5 minutes to remove air bubbles. The absorbance at 530 nm was measured on the Wallac Victor2 Multilabel counter.

[2] = system: obese male ob/ob mice; assay: Chronic 28-day treatment of ob/ob mice; format: in vivo
Method: Summary: CGH was administered daily for 28 days to obese male ob/ob mice. Mice were also treated with vehicle saline and thyroxine. Data was obtained for food intake, blood glucose, serum insulin, serum lipids, and serum thyroid hormone levels. At sacrifice, animals were examined for changes in liver pathology, and gross histology. […] Evaluation of liver histology sections was performed to examine the effect of CGH-mediated lipolysis on liver steatosis.
11-week old male ob/ob mice were individually caged and given a standard lab chow (4% fat) with free access to food and water. Animals were assigned to a treatment group (n=7−8, average weight 54.3±0.3 g/group), kept on a 12 hour dark cycle (6 PM to 6 AM), and injected each day between 7 and 9 AM. Chow consumed by each animal was weighed twice weekly. All animals received treatments IP in an injection volume of 0.1 ml. CGH was administered at 250 μg/kg, dissolved in sterile saline. Thyroxine (T4) was administered at 1.5 μg/mouse for 4 days, reduced to 1 μg/mouse for 10 days, and returned to 1.5 μg/mouse for the next 14 days. The vehicle controls received sterile saline. TSH was obtained from Genzyme Pharmaceuticals (Thyrogen®, Catalog number 36778; Genzyme Corporation, Cambridge, Mass.), and T4 obtained from Calbiochem, Inc. (EMD Biosciences, catalog number 61205, San Diego, Calif.) All blood draws were performed by retro-orbital puncture under isoflurane anesthesia.
After 25 days of treatment as described above, blood was sampled from all treated animals, serum separated, and analyzed for total T4 by a commercially available kit (Biocheck, Burlingame, Calif.). After 25 days of treatment, the vehicle T4 levels were 5.14±0.08 μg/dl. The CGH-treated group had T4 levels of 7.25±1.2 μg/dl, and the thyroxine-treated group had T4 levels of 9.04±0.47 μg/dl.
Subject animals were fasted for 4 hours at the beginning of the light cycle, and serum was obtained at treatment day 25 under isoflurane anesthesia. Serum Glucose levels were determined with the Cholestech LDX blood analyzer (Cholestech Corporation, Hayward Calif.), and serum insulin levels by ELISA. Serum glucose levels for vehicle and thyroxine treated groups were 306±22 and 295±23 mg/dl, respectively. […] Serum insulin levels for the vehicle and thyroxine treated groups were 33.5±1.8 and 25.9±1.7 ng/ml, respectively.
Subject animals were fasted for 4 hours at the beginning of the light cycle, and serum was obtained at treatment day 25 under isoflurane anesthesia. Triglyceride and total cholesterol levels were determined with the Cholestech LDX blood analyzer. Serum triglyceride levels for the vehicle controls were 143.7±23 mg/dl. […] Total cholesterol levels in the vehicle-treated and thyroxine-treated groups were 198±13 and 194±15 mg/dl, respectively.
Liver sections were dissected from all treatment groups described above and mounted in paraffin following fixation with NBS-formalin. Sections were mounted and stained with hematotoxylin and eosin (H&E) for visualization of hepatic structural changes. The extent of liver steatosis was evaluated on a four-point scale, from 0 to 3, with zero displaying no signs of liver steatosis, and a […], represented pronounced macrovesicular and microvesicular steatosis. […] Average scores given to the groups were vehicle (4), thyroxine (3), and CGH (1.5). […] The CGH treated sections appear to have regained hallmarks of normal hepatocyte architecture in only 28 days of treatment, with areas containing hepatocytes without lipid-laden inclusions in the cytoplasm of the cell.

[3] = system: LPS-induced mild endotoxemia mouse model; assay: LPS-induced mild endotoxemia mouse model, serum cytokines; format: in vivo, mice; conditions: 2 mg/kg monomer, data not shown
Method: An in vivo experiment was designed to examine the effect of CGH in a mouse model of LPS-induced mild endotoxemia. This model mimics acute endotoxemia/sepsis by challenging mice with a low, non-lethal dose of bacterial endotoxin (lipopolysaccharide, LPS). Serum is collected at various timepoints (1-8 hours) after intraperitoneal LPS injection and analyzed for altered expression of a wide variety of pro- and anti-inflammatory cytokines and acute phase proteins that mediate the inflammatory response. The model provides a means to assess the potential anti-inflammatory effects of therapeutic candidates during a robust inflammatory response. To initially assess the model, we measured proinflammatory cytokines in a pilot experiment to collect reference data for the model.
C57B1/6 mice (Charles River Laboratories; 5 mice/group) were treated i.p. with PBS, 0.2 mg/kg CGH in PBS, or 2 mg/kg CGH in PBS 1 hour prior to LPS challenge. The mice were then challenged with 25 ug of LPS i.p. and bled at 1 hour and 4 hours after LPS injection. Serum was analyzed for TNF[…] (1 hour) and IL-6 (4 hours) levels by ELISA.
To determine if CGH would potentiate the effect of a sub-maximal dose of glucocorticoid, groups of 10 C57B1/6 mice each were treated i.p. with PBS, 0.15 or 1.5 mg/kg Dex, 2 mg/kg CGH, or a combination of CGH and low or high doses of Dex, 1 hour prior to injection of 25 ug LPS i.p. As shown in TABLE 3 (Expt #2), either 2 mg/kg CGH or 1.5 mg/kg Dex treatment alone (1 hour prior to LPS) caused a significant drop in serum TNFα levels at 1 hour, as observed in previous experiments. The effects of CGH administered in conjunction with Dex on inhibition of TNFα production were greater than either dose of Dex alone.

[4] = system: TSHR; assay: Binding of 125I-CGH and 125I-TSH to BHK cells expressing the TSHR; design: species or system murine or human; conditions: increasing amounts of unlabeled protein
Method: BHK cells expressing murine or human TSHRs were cultured in Dulbecco's Modified Eagle's Medium [DMEM (high glucose)] containing 5% fetal bovine serum, 1% Glutamax, 1% sodium pyruvate, 250 nM methotrexate, and Geneticin ( 1/100). […] Plates of cells were placed on ice and washed twice with 1.0-2.0 ml of ice-cold PBS. […] Specific binding was determined in the presence (nonspecific binding) and absence (total binding) of unlabeled rhCGH (25.0 μg/ml) or TSH (10 μg/ml). Binding reactions were terminated by removing the binding medium and the cell monolayers were washed three times with 1.0-2.0 ml of ice-cold PBS containing 1.0 mg/ml BSA and twice with 1.0-2.0 ml of ice cold albumin-free PBS. Cells were solubilized in 1.0 ml of 1.0N NaOH for 10 min at room temperature and cell-associated radioactivity was determined in a gamma counter. The measured radioactivity was normalized to cell number that was determined on plates of cells cultured in parallel. Binding data were analyzed by non-linear regression using Prizm 3.0 (GraphPad Software, San Diego, Calif.).

C[C@H](Cc1ccc2c(c1)OC(C(=O)[O-])(C(=O)[O-])O2)NC[C@H](O)c1cccc(Cl)c1.[Na+].[Na+] [CL, CL 316,243, reference compound]
percent change (increase) in serum FFA over 2 hours [1]: 82%±16% | percent change (increase) in serum glycerol over 2 hours [1]: 168%±23%

N[C@@H](Cc1cc(I)c(Oc2cc(I)c(O)c(I)c2)c(I)c1)C(=O)O [thyroxine, reference compound]
liver steatosis average score ([2]; H&E liver sections, 28 days, n=4): 3 | serum total T4 levels ([2]; after 25 days of treatment): 9.04 ± 0.47 µg/dL | Serum glucose levels ([2]; day 25, fasted 4 hours): 295 ± 23 mg/dL | Serum insulin levels ([2]; day 25, fasted 4 hours): 25.9 ± 1.7 ng/mL | Serum triglyceride levels ([2]; day 25, fasted 4 hours): 198 ± 43 mg/dL | Total cholesterol levels ([2]; day 25, fasted 4 hours): 194 ± 15 mg/dL | Food intake ([2]; ob/ob mice, CGH 250 μg/kg IP daily, T4 1-1.5 μg/mouse): 6.1±0.17 grams/day of chow

B1: zlut1: beta subunit of CGH, glycoprotein hormone beta 5, previously called Zlut1 (protein)
chain: ASSGNLRTFVGCAVREFTFLAKKPGCRGLRITTDACWGRCETWEKPILEPPYIEAHHRVCTYNETKQVTVKLPNCAPGVDPFYTYPVAIRCDCGACSTATTECETI
effect on serum TNFα or IL-6 levels [3]: neither of these monomers had any effect | reduction of the amount of 125I-CGH bound by unlabeled competitor [4]: neither unlabeled rhTSH (FIG. 1C) nor unlabeled rhGPHA2 nor rhGPHB5 (data not shown) reduced the amount of ^125I-CGH bound

B2: zsig51: alpha subunit of CGH, glycoprotein hormone alpha2, previously called Zsig51 (protein)
chain: QEAVIPGCHLHPFNVTVRSDRQGTCQGSHVAQACVGHCESSAFPSRYSVLVASGYRHNITSVSQCCTISGLKKVKVQLQCVGSRREELEIFTARACQCDMCRLSRY
effect on serum TNFα or IL-6 levels [3]: neither of these monomers had any effect | reduction of the amount of 125I-CGH bound by unlabeled competitor [4]: neither unlabeled rhTSH (FIG. 1C) nor unlabeled rhGPHA2 nor rhGPHB5 (data not shown) reduced the amount of ^125I-CGH bound
